{
  "source": "patent EP2815749A1",
  "about": "“Solid form of 4-amino-2-(2,6-dioxopiperidine-3-yl)isoindoline-1,3-dione having specified X-ray diffraction pattern” (IP Gesellschaft für Management mbH, priority 2013, dated 2014)",
  "key": {"[1]": {"experiment": "In vivo pharmacokinetics of Compound (VI) free base and hemisulfate salt capsules", "details": "dogs, oral capsule, 150 mg of Compound (VI) (or equivalent), after pretreatment with famotidine (40 mg)", "quoted_text": "An aliquot of 0.050 mL of dog EDTA plasma was used for the assay. […] A 450 µï^ portion of the organic layer was removed and evaporated to dryness. The residue was reconstituted in 300 µl, of the reconstitution solution (30% acetonitrile in 10 mM NH40Ac with 0.01% acetic acid). All liquid transfer steps were performed using a Perkin Elmer JANUS Mini® liquid handler except for the addition of the internal standard solution. A 5 µï^ aliquot of the extracted sample was injected to uHPLC-MS/MS system. The uHPLC was performed on a LEAP 4X Ultra uHPLC system with LEAP HTC PAL autosampler. Mobile phase A contained 10 mM NH4OAc and 0.01% acetic acid in ACN/water (10:90), and mobile phase B contained 10 mM NH4OAc and 0.01% acetic acid in ACN/water (90: 10). […] The flow rate was 0.6 mL/min and column temperature was maintained at 60°C condition. Detection was accomplished using an AB Sciex Triple Quad 5500 mass spectrometer in positive ESI with turbo ion spray ionization and using multiple reaction monitoring (MRM) mode. […] Data acquisition and quantification were performed using AB Sciex Analyst® 1.5.1 software."}, "[2]": {"experiment": "Equilibration and form conversion experiments of Compound of formula (V)", "type": "physicochemical", "details": "for Form by XRPD after equilibration: 6 hours"}, "[3]": {"experiment": "Hygroscopicity of forms of Compound of formula (V) (DVS)", "type": "physicochemical", "details": "between 0% and 90% relative humidity; 25°C", "experimental": "Differential Scanning Calorimetry (DSC): DSC analyses were performed on a TA instrument Q2000 Differential Scanning Calorimeter. Indium was used as the calibration standard. Approximately 2-5 mg of sample was placed into a DSC pan. The sample was heated under nitrogen at a rate of 10°C/min, up to a final temperature of 350°C. Melting points were reported as the extrapolated onset temperatures. Thermogravimetric Analysis (TGA): TGA analyses were performed on a TA instrument Q5000 Thermogravimetric Analyzer. Calcium oxalate was used for a performance check. Approximately 2-10 mg of accurately weighed sample was placed on a pan and loaded into the TGA furnace. The sample was heated under nitrogen at a rate of 10°C/min, up to a final temperature of 300°C. Attenuated Total Reflection Fourier-Transform Infrared Analysis (ATR-FTIR): FTIR analyses were performed on the samples \"as is\" using an attenuated total reflection (ATR) attachment on a Nicolet 6700 FTIR spectrometer. After a background of ambient lab conditions was obtained, samples were placed on the ATR, compressed with the anvil, and spectrum acquired. Miniature Scanning Electron Microscope (Mini SEM) Morphology analysis of the samples was carried out on an Even Mini SEM. Small amounts of samples were dispersed on a sample holder, and then coating with gold viewed with 200x and 1000x magnification. Dynamic Vapor Sorption (DVS) Hygroscopicity was determined on a Surface Measurement Systems DVS. Typically a sample size of 5-30 mg was loaded into the DVS instrument sample pan and the sample was analyzed on a DVS automated sorption analyzer at 25°C. The relative humidity was increased from 0 % to 90 %RH at 10 %RH step. The relative humidity was then decreased in a similar manner to accomplish a full adsorption/desorption cycle. The entire scope of this invention is not limited by the specific examples described herein, but is more readily understood with reference to the appended claims."}, "[4]": {"experiment": "Equilibration and form conversion experiments of Compound of formula (V)", "type": "physicochemical", "details": "Ambient, 8 days", "experimental": "Equilibration: Equilibration studies using single, binary and ternary combinations of batch solvents (water, acetone, and acetonitrile) were investigated to mimic key steps in manufacturing 3-(4-nitro-1-oxoisoindolin-2-yl)piperidine-2,6-dione. Materials of 3-(4-nitro-1-oxoisoindolin-2-yl)piperidine-2,6-dione and solvent or solvent mixtures were added to a glass vial to achieve free-flowing slurry and allowed to equilibrate at the specified temperature. After equilibration for 8 days, the solid phase was separated via filtration. The solid phase was then dried under air and analyzed by XRPD. List of Experimental Conditions for Equilibration:\nA total of four batches of 3-(4-nitro-1-oxoisoindolin-2-yl)piperidine-2,6-dione were characterized by XRPD, DSC, TGA, ATR-FTIR and DVS, as described in section 6.5. The solid form represented by the batch 1 was designated as Form A ({drug5b}); the solid form represented by the batch 4 was designated as Form B ({drug5c}); the batches 2 and 3 were determined to be mixtures of Forms A and B, with Form B ({drug5c}) dominating the patterns. The equilibration experiments were performed using batches 2, 3 and 4, and the results are described in Table 2. Results for Equilibration Experiments:\nResults from Additional Form conversion Experiments: […]"}, "[5]": {"experiment": "Salt screening and crystalline salt characterization of Compound (VI)", "details": "for Hygroscopicity: ambient temperature and relative humidity conditions, hemisulfate salt", "quoted_text": "The screening examined acid type, acid level (equivalents), and/or type of crystallization solvent. Each plate contained 96 well plates (8 rows of 12 columns per plate). […] The solution (12.5 mL) was transferred to 24 vials. To each vial was added 0.25 M EtOH stock solutions of the following acids:\nThe content of each vial was transferred to 12 crystallization wells and evaporated to dryness. Upon evaporation, each well was charged with 100 µl of solvent using a robotic liquid handler. The following crystallization solvents were tested: methyl isobutyl ketone (MIBK), ethyl acetate, toluene, THF, acetonitrile, acetone, isopropanol, ethanol, methanol, 1,2-dichloroethylene, isopropanol/water (50:50), and water. Next, the plates were sealed with Teflon septa and subjected to temperature cycling. […] After the heating/cooling cycle, the contents of the wells were characterized by birefringent imaging. Perceived crystalline hits were further characterized by PXRD analysis."}},
  "note": "Where a name gives a salt, the structure may show the parent alone.",
  "data": [
    {"smiles": "N[C@@H]1c2cccnc2[C@H](OC(=O)N2CCC(n3c(=O)[nH]c4ncccc43)CC2)CC[C@H]1c1cccc(F)c1F", "note": "[Compound (VI), N-(5S,6S,9R)-5-amino-6-(2,3-10-difluorophenyl)-6,7,8,9-tetrahydro-5H-cyclohepta[b]pyridin-9-yl-4-(2-oxo-2,3-dihydro-1H-imidazo[4,5-b]pyridin-1-yl)piperidine-1-carboxylate]", "values": [
      {"measurement": "bioavailability", "setting": "[1]; listed as Compound (VI) free base", "value": 4.54, "unit": "%"}
    ]},
    {"smiles": "O=C1CCC(N2Cc3c(cccc3[N+](=O)[O-])C2=O)C(=O)N1", "note": "(stereo not drawn) [Form B ({drug5c}), 3-(4-nitro-1-oxoisoindolin-2-yl)piperidine-2,6-dione]", "values": [
      {"measurement": "Form by XRPD after equilibration", "setting": "[2]; Acetonitrile, 80 °C (or reflux)", "value": "converts to Form A"},
      {"measurement": "Form by XRPD after equilibration", "setting": "[2]; Acetonitrile/water (2:1), 60 °C", "value": "converts to Form A"},
      {"measurement": "XRPD Result after form conversion experiment", "setting": "[2]; Heated to 220 °C for 4 hours", "value": "converts to Form A"},
      {"measurement": "total mass change", "setting": "[3]", "value": 0.39, "unit": "%"},
      {"measurement": "Form by XRPD after equilibration", "setting": "[4]; Acetone/water (1:1)", "value": "converts to Form A"},
      {"measurement": "Form by XRPD after equilibration", "setting": "[4]; Acetonitrile/water (1:1)", "value": "converts to Form A"},
      {"measurement": "Form by XRPD after equilibration", "setting": "[4]; Acetonitrile/water/acetone (1:1:1)", "value": "converts to Form A"},
      {"measurement": "Form by XRPD after equilibration", "setting": "[4]; acetone", "value": "converts to Form A"},
      {"measurement": "Form by XRPD after equilibration", "setting": "[4]; water", "value": "converts to Form A"}
    ]},
    {"smiles": "N[C@@H]1c2cccnc2[C@H](OC(=O)N2CCC(n3c(=O)[nH]c4ncccc43)CC2)CC[C@H]1c1cccc(F)c1F", "note": "[hemisulfate salt of Compound (VI), (5S,6S,9R)-5-amino-6-(2,3-dfluorophenyl)-6,7,8,9-tetrahydro-5H-cyclohepta[b] pyridin-9-yl 4-(2-oxo-2,3-dihydro-1 H-imidazo[4,5-b]pyridin-1-yl)piperidine-1-carboxylate, hemisulfate salt]", "values": [
      {"measurement": "Chemical stability", "setting": "[5]", "value": "chemically stable"},
      {"measurement": "Physical stability", "setting": "[5]", "value": "physically stable"},
      {"measurement": "Hygroscopicity", "setting": "[5]", "value": "low hygroscopicity"},
      {"measurement": "Hygroscopicity", "setting": "[5]; listed as Sulfuric acid", "value": "low/non-hygroscopic at ambient temperatures and relative humidity conditions"},
      {"measurement": "bioavailability", "setting": "[1]; hemisulfate salt", "value": 34.73, "unit": "%"}
    ]}
  ]
}
